According to ChEMBL document CHEMBL3044536, “The synthesis, anti-inflammatory, and anti-microbial activity evaluation of new series of 4-(3-arylureido)phenyl-1,4-dihydropyridine urea derivatives” (2013):
Converted amounts (≈) assume the structure as drawn. The source made the active and inactive calls. The calls are words filed in the database; no cut-off is given here.

Experiments:
THP-1 [1] = experiment: Anti-inflammatory activity in Homo sapiens (human) THP1 cells assessed as inhibition of LPS-induced IL6 production at 10 uM incubated for 30 min prior to LPS-challenge measured after 24 hr by ELISA; assay type: functional
THP-1 [2] = experiment: Anti-inflammatory activity in Homo sapiens (human) THP1 cells assessed as inhibition of LPS-induced TNFalpha production at 10 uM incubated for 30 min prior to LPS-challenge measured after 24 hr by ELISA; assay type: functional
Aspergillus flavus = experiment: Antifungal activity against Aspergillus flavus; assay type: functional
Fusarium solani = experiment: Antifungal activity against Fusarium solani; assay type: functional
Aspergillus niger [3] = experiment: Antifungal activity against Aspergillus niger; assay type: functional
Candida albicans = experiment: Antifungal activity against Candida albicans; assay type: functional
Salmonella typhimurium = experiment: Antibacterial activity against Salmonella enterica subsp. enterica serovar Typhimurium; assay type: functional
Escherichia coli = experiment: Antibacterial activity against Escherichia coli; assay type: functional
Bacillus subtilis [4] = experiment: Antibacterial activity against Bacillus subtilis; assay type: functional
Staphylococcus aureus = experiment: Antibacterial activity against Staphylococcus aureus; assay type: functional
Aspergillus niger [5] = experiment: Antifungal activity against Aspergillus niger up to 200 ug/ml; assay type: functional, organism-based
THP-1 [6] = experiment: Anti-inflammatory activity in Homo sapiens (human) THP1 cells assessed as inhibition of LPS-induced IL6 production at 1 uM incubated for 30 min prior to LPS-challenge measured after 24 hr by ELISA; assay type: functional
THP-1 [7] = experiment: Anti-inflammatory activity in Homo sapiens (human) THP1 cells assessed as inhibition of LPS-induced TNFalpha production at 1 uM incubated for 30 min prior to LPS-challenge measured after 24 hr by ELISA; assay type: functional
Bacillus subtilis [8] = experiment: Antibacterial activity against Bacillus subtilis up to 200 ug/ml; assay type: functional, organism-based

`CCOC(=O)C1=C(C)NC(C)=C(C(=O)OCC)C1c1ccc(NC(=O)Nc2ccc(Cl)cc2C(F)(F)F)cc1` gave an inhibition at 10 µM (THP-1 [1]) of 91%, an inhibition at 10 µM (THP-1 [2]) of 83% and an MIC (Aspergillus flavus) of 80 µg/mL (≈ 141 µM). It also gave an MIC (Fusarium solani) of 60 µg/mL (≈ 106 µM), an MIC (Aspergillus niger [3]) of 85 µg/mL (≈ 150 µM) and an MIC (Candida albicans) of 50 µg/mL (≈ 88.3 µM). For the same compound, the MIC (Salmonella typhimurium) was 60 µg/mL (≈ 106 µM), the MIC (Escherichia coli) was 45 µg/mL (≈ 79.5 µM) and the MIC (Bacillus subtilis [4]) was 70 µg/mL (≈ 124 µM). The MIC (Staphylococcus aureus) was 55 µg/mL (≈ 97.2 µM).
`CCOC(=O)C1=C(C)NC(C)=C(C(=O)OCC)C1c1ccc(NC(=O)Nc2ccc(Cl)cc2Cl)cc1` was tested, and the inhibition at 10 µM (THP-1 [1]) was 24%, the inhibition at 10 µM (THP-1 [2]) was 11% and the MIC (Aspergillus flavus) was 20 µg/mL (≈ 37.6 µM). It also gave an MIC (Fusarium solani) of 25 µg/mL (≈ 47 µM), an MIC (Aspergillus niger [3]) of 10 µg/mL (≈ 18.8 µM) and an MIC (Candida albicans) of 15 µg/mL (≈ 28.2 µM). It also gave an MIC (Salmonella typhimurium) of 20 µg/mL (≈ 37.6 µM), an MIC (Escherichia coli) of 10 µg/mL (≈ 18.8 µM) and an MIC (Bacillus subtilis [4]) of 35 µg/mL (≈ 65.7 µM). It also gave an MIC (Staphylococcus aureus) of 20 µg/mL (≈ 37.6 µM).
With `CCOC(=O)C1=C(C)NC(C)=C(C(=O)OCC)C1c1ccc(N)cc1` the Activity (Aspergillus niger [5]) was “inactive”, the inhibition at 10 µM (THP-1 [1]) was 0% and the inhibition at 10 µM (THP-1 [2]) was 0%. For the same compound, the MIC (Aspergillus flavus) was 90 µg/mL (≈ 261 µM), the MIC (Fusarium solani) was 90 µg/mL (≈ 261 µM) and the MIC (Candida albicans) was 90 µg/mL (≈ 261 µM). The MIC (Salmonella typhimurium) was 45 µg/mL (≈ 131 µM), the MIC (Escherichia coli) was 40 µg/mL (≈ 116 µM) and the MIC (Bacillus subtilis [4]) was 85 µg/mL (≈ 247 µM). For the same compound, the MIC (Staphylococcus aureus) was 60 µg/mL (≈ 174 µM).
For `C[C@@H]1C[C@H]2[C@@H]3CCC4=CC(=O)C=C[C@]4(C)[C@@]3(F)[C@@H](O)C[C@]2(C)[C@@]1(O)C(=O)CO` [DEXAMETHASONE], the inhibition at 1 µM (THP-1 [6]) was 80% and the inhibition at 1 µM (THP-1 [7]) was 71%.
Work on `CCOC(=O)C1=C(C)NC(C)=C(C(=O)OCC)C1c1ccc(NC(=O)Nc2cc(C(F)(F)F)ccc2Cl)cc1` yielded an inhibition at 10 µM (THP-1 [1]) of 12%, an inhibition at 10 µM (THP-1 [2]) of 0% and an MIC (Aspergillus flavus) of 90 µg/mL (≈ 159 µM). It also gave an MIC (Fusarium solani) of 90 µg/mL (≈ 159 µM), an MIC (Aspergillus niger [3]) of 45 µg/mL (≈ 79.5 µM) and an MIC (Candida albicans) of 65 µg/mL (≈ 115 µM). For the same compound, the MIC (Salmonella typhimurium) was 90 µg/mL (≈ 159 µM), the MIC (Escherichia coli) was 65 µg/mL (≈ 115 µM) and the Activity (Bacillus subtilis [8]) was “inactive”. The MIC (Staphylococcus aureus) was 80 µg/mL (≈ 141 µM).
In the case of `CCOC(=O)C1=C(C)NC(C)=C(C(=O)OCC)C1c1ccc(NC(=O)Nc2ccc(Cl)cc2)cc1`, the inhibition at 10 µM (THP-1 [1]) is reported as 18%, the inhibition at 10 µM (THP-1 [2]) is reported as 0% and the MIC (Aspergillus flavus) is reported as 20 µg/mL (≈ 40.2 µM). The MIC (Fusarium solani) was 20 µg/mL (≈ 40.2 µM), the MIC (Aspergillus niger [3]) was 20 µg/mL (≈ 40.2 µM) and the MIC (Candida albicans) was 30 µg/mL (≈ 60.2 µM). The MIC (Salmonella typhimurium) was 35 µg/mL (≈ 70.3 µM), the MIC (Escherichia coli) was 20 µg/mL (≈ 40.2 µM) and the MIC (Bacillus subtilis [4]) was 80 µg/mL (≈ 161 µM). The MIC (Staphylococcus aureus) was 65 µg/mL (≈ 131 µM).
`CCOC(=O)C1=C(C)NC(C)=C(C(=O)OCC)C1c1ccc(NC(=O)Nc2ccc(F)cc2)cc1` showed an inhibition at 10 µM (THP-1 [1]) of 68%, an inhibition at 10 µM (THP-1 [2]) of 42% and an MIC (Aspergillus flavus) of 85 µg/mL (≈ 177 µM). The MIC (Fusarium solani) was 85 µg/mL (≈ 177 µM), the MIC (Aspergillus niger [3]) was 45 µg/mL (≈ 93.5 µM) and the MIC (Candida albicans) was 65 µg/mL (≈ 135 µM). It also gave an MIC (Salmonella typhimurium) of 65 µg/mL (≈ 135 µM), an MIC (Escherichia coli) of 65 µg/mL (≈ 135 µM) and an MIC (Bacillus subtilis [4]) of 80 µg/mL (≈ 166 µM). It also gave an MIC (Staphylococcus aureus) of 40 µg/mL (≈ 83.1 µM).
